# Test results: publication PMC9227536, “Prediction of Pharmacokinetics of IDP-73152 in Humans Using Physiologically-Based Pharmacokinetics” (Pharmaceutics, 2022)
# Tests used:
# [1] = Blood stability in rat blood (CLblood); type: in vitro ADME
# Method: In contrast, however, the compound was unstable in the rat blood and plasma. […] The blood containing IDP-73152 was incubated at 37 °C in a water bath, and aliquots (50 μL) were collected from the mixture at 0, 10, 30, 60, 120, and 240 min. The samples were centrifuged for 5 min at 10,000× g/4 °C, and the plasma was collected/stored at -80 °C until analysis. For the estimation of the clearance in the blood (CLblood), in rats, the disappearance of IDP-73152 in the blood was assumed to be mediated by first-order kinetics. […]×total volume of the blood×BP ) to calculate CLblood.
# [2] = Stability in plasma, human; type: in vitro ADME; conditions: humans plasma
# Method: The unbound fractions of IDP-73152 in various matrices were measured according to the manufacturer's instructions for the rapid equilibrium dialysis (RED) device (ThermoFisher Scientific, Waltham, MA, USA). Briefly, IDP-73152 was added to the plasma or the microsomal/hepatocyte incubation buffer from various species (i.e., mouse, rat, dog, and human for microsomal incubation; rat for hepatocyte incubation) to obtain final concentrations of the compound at 0.3, 1, and 3 μM. After the membrane insert was placed in the RED plate, the solution containing IDP-73152 was added (400 μL) to the sample chamber, and the dialysis buffer (600 μL) was added to the buffer chamber. The RED plate was sealed with parafilm and then incubated at 37 °C in the orbital shaker (Lab Companion, Daejeon, Korea) at 100 rpm for 5 h. […] The IDP-73152 concentration in the buffer/sample chambers (i.e., CBuffer Chamber and CSample Chamber) was determined by an assay. Thus, the fraction unbound was defined as:(2) % Fraction unbound=(CBuffer Chamber/CSample Chamber)×100% When necessary, the stability of IDP-73152 in the matrix was also determined at 5 h. […] Accordingly, the kinetics of IDP-73152 instability were determined in the rat blood at a final concentration of 0.3 μM. […]
# [3] = Biliary and renal excretion in bile duct-cannulated rats; type: in vivo; conditions: intravenous 5 mg/kg, up to 8 h
# Method: Male Sprague Dawley rats (Orient Bio Inc., Seongnam, Korea), weighing 194.7 g to 205.4 g, were used in this study. IDP-73152 was administered to rats at a single dose of 2.5, 5, or 10 mg/kg via tail vein injection (the injection volume fixed at 2 mL/kg in saline). […] Blood samples (100 μL) were collected from the jugular vein at 0.167, 0.33, 0.5, 1, 2, 4, and 8 h after the administration. Plasma was separated/collected by centrifugation of the blood samples for 5 min at 10,000× g/4 °C and stored at −80 °C until analysis. When necessary, the biliary and renal excretion of IDP-73152 were studied in bile duct-cannulated rats after the intravenous injection (5 mg/kg) to investigate its route(s) of excretion in rats. Bile and urine samples were collected up to 8 h (i.e., approximately 5 times of the terminal phase half-life) after the administration and the samples were stored at −80 °C until the analysis. The cumulative excretion of the bile and the urine to infinite time was determined by assuming that the excretion was practically completed by the last collection time.
# [4] = system: penicillin-resistant Streptococcus pneumonia; conditions: infected mice, twice-a-day dosing; cited from earlier work
structure (smiles),measurement,setting,value
CC(C)(C)[C@H](NC(=O)[C@H](CC1CCCC1)CN(O)C=O)C(=O)N1CCC(NCc2cc(F)c(F)cc2F)CC1 [IDP-73152],CLblood,"[1]; fresh whole blood from rats, 1 μM, 37 °C",0.717 ± 0.383 mL/min/kg
same,contribution of CLblood to the CLp,[1]; rats,2.15%
same,percentage remaining in plasma at 5 h,"[2]; 5 h, 37 °C",98.2 ± 3.4%
same,stability in plasma,[2]; preliminary study,stable
same,biliary recovery of intact drug,[3],0.512 ± 0.154 % of the dose
same,urinary recovery of intact drug,[3],1.21 ± 0.48 % of the dose
same,ED50 (oral dose at which the survival rate was 50%),[4],3.0 mg/kg
